62 compounds from BindingDB's records for doi:10.7270/Q2TX3CTT (Broad Institute, 2010) can be followed below.

The term EC50 denotes the concentration giving half of the maximal effect.

Molecules are shown by their SMILES. Where a name gives a salt, the structure may show the parent alone.

Chain of Glycogen synthase kinase-3 beta (P49841 whole entry): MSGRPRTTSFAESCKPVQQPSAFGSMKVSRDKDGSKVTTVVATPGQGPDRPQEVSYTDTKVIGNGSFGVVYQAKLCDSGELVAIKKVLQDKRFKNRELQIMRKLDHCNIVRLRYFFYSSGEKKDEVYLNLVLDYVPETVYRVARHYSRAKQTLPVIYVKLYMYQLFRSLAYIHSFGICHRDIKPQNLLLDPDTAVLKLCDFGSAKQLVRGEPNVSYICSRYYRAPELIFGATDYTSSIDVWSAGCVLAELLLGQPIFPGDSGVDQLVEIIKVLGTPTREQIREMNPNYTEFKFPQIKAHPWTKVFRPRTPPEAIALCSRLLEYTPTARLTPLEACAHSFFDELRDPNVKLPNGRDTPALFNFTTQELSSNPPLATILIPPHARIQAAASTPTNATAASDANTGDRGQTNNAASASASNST

The assay addresses Glycogen synthase kinase-3 beta (Homo sapiens, UniProt P49841). The experiment in a line: GSK3beta kinase inhibitor potency, dose response, biochemical, luminescence, cell-free homogeneous, retest (AID 434954).
`COc1ccc(-n2c(=O)c3c4c(sc3n3c(=S)[nH]nc23)CCC4)cc1` [1-Mercapto-4-(4-methoxy-phenyl)-7,8-dihydro-4H,6H-9-thia-2,3,4,9b-tetraaza-cyclopenta[b]-as-indace n-5-one] yielded an EC50 of 61.7 µM.

As to `COc1cccc2c1cc1c(=O)n(CC(=O)NCc3ccccn3)nc(C)n12` [2-(9-methoxy-4-methyl-1-oxo-[1,2,4]triazino[4,5-a]indol-2-yl)-N-(pyridin-2-ylmethyl)acetamide], the EC50 is > 300 µM. The same measure for `COc1ccc(Nc2nc(N)nc(CSc3nncn3C)n2)cc1` [N-(4-methoxyphenyl)-6-{[(4-methyl-4H-1,2,4-triazol-3-yl)thio]methyl}-1,3,5-triazine-2,4-diamine]: 41.3 µM.

As for `COc1ccc(-c2cn3c(C)c(C(=O)Nc4ccncc4)sc3n2)cc1` [6-(4-methoxyphenyl)-3-methyl-N-(4-pyridyl)imidazo[2,1-b]thiazole-2-carboxamide], the EC50 is > 300 µM. The result for `COC(=O)c1ccccc1Nc1ccnc(Cl)n1` [methyl 2-[(2-chloropyrimidin-4-yl)amino]benzoate] reads > 300 µM. The result for `CCCC(NC(=O)Cc1c(C)c2c(cc(C)c3c(C)coc32)oc1=O)C(=O)O` (configuration not stated) [2-[[2-(3,4,9-trimethyl-7-oxofuro[2,3-f]chromen-8-yl)acetyl]amino]pentanoic acid] reads > 300 µM. The result for `Nc1nonc1-n1nnc(C(=O)NN=Cc2ccc(Cl)cc2Cl)c1CN1CCCCC1` [MLS000950038] reads > 300 µM; that for `CCOC(=O)CNC(=O)CSc1ccc2nnc(-c3cccnc3)n2n1` [ethyl 2-[[2-[(3-pyridin-3-yl-[1,2,4]triazolo[4,3-b]pyridazin-6-yl)sulfanyl]acetyl]amino]acetate], > 300 µM; that for `COc1cccc(NC(=O)CN(C2=NC3CS(=O)(=O)CC3S2)c2cccc(C)c2)c1` (configuration not stated) [MLS001110132], > 300 µM. Consider `O=C(Nc1cccc(Cl)c1)c1ccc(NCCCN2CCOCC2)c([N+](=O)[O-])c1` [SMR000194818], for which the EC50 was > 300 µM. The result for `OC(CNc1nc(-c2cccnc2)nc2ccccc12)c1ccccc1` (configuration not stated) [SMR000592049] reads > 300 µM; that for `CC(=NNC(=S)Nc1c(C)cccc1C)c1cc2ccccc2o1` [SMR000260555], > 300 µM. `CCN(CC)Cc1c(O)ccc2c1O/C(=C\C=C\c1ccccc1)C2=O` [MLS000779120]: the EC50 was > 300 µM. The result for `O=C(Nc1nc2ccc(Cl)cc2s1)C1CC1` [N-(6-chloranyl-1,3-benzothiazol-2-yl)cyclopropanecarboxamide] reads 43.8 µM; that for `O=C(NCC(c1ccco1)N1CCN(c2ccc(F)cc2)CC1)c1cccs1` (configuration not stated) [SMR000808277], > 300 µM; that for `C[C@H]1[C@@H](c2ccccc2)O[C@@H](c2ccccc2Br)N1C` [MLS001242758], > 300 µM.

For `COCCN(CC(=O)NCc1ccc(F)cc1)C(=O)CCC(=O)Nc1ccccn1`, the EC50 is > 300 µM. The same measure for `CC(NCCC(Cc1ccccc1)c1ccco1)c1ccccc1` (configuration not stated) [SMR000294034]: > 300 µM; for `CC(C)c1c(C(=O)NN=Cc2ccoc2)nnn1-c1nonc1N` [MLS001139450]: > 300 µM. The result for `CN=C(NC#N)SCC(=O)c1ccc(Cl)cc1Cl` [[2-(2,4-dichlorophenyl)-2-oxidanylidene-ethyl] N-cyano-N'-methyl-carbamimidothioate] reads 3.19 µM; that for `CCC(NC(=O)Cc1c(C)c2cc3c(cc2oc1=O)OC(C)(C)CC3)C(=O)O` (configuration not stated) [MLS001215946], > 300 µM; that for `COc1ccc2nc(NC(=O)CSc3nc4cccnc4n3C)sc2c1` [MLS000072990], 113 µM. The result for `COc1cc([CH+][N-]NC(=O)COc2ccc([N+](=O)[O-])cc2)ccc1OCC(=O)N1CCOCC1` [N-[[3-methoxy-4-[2-(4-morpholinyl)-2-oxoethoxy]phenyl]methylideneamino]-2-(4-nitrophenoxy)acetamide] reads > 300 µM; that for `O=C(O)c1ccccc1N=NCc1ccnc2ccccc12`, > 300 µM. In turn, `COc1ccc(C(=O)c2sc(Nc3ccccc3)nc2C)cc1` [MLS001181792] gave a concentration giving a half-maximal response (EC50) of 32.1 µM. The result for `Cc1ccc(CSc2ccc3nnc(-c4ccccn4)n3n2)cc1` reads > 300 µM; that for `Cc1ccnc(NC(=O)Cn2ccc([N+](=O)[O-])n2)c1` [N-(4-methylpyridin-2-yl)-2-(3-nitropyrazol-1-yl)ethanamide], > 300 µM; that for `CCOC(=O)c1ccc2ncc(C(=O)OCC)c(Nc3ccc(N4CCOCC4)cc3)c2c1` [diethyl 4-[(4-morpholin-4-ylphenyl)amino]quinoline-3,6-dicarboxylate], > 300 µM. Take `CC(C)OCCCNC(=O)c1ccc(CS(=O)(=O)Cc2ccccc2F)o1` [5-[(2-fluorophenyl)methylsulfonylmethyl]-N-(3-propan-2-yloxypropyl)furan-2-carboxamide]: the EC50 was > 300 µM. As to `NS(=O)(=O)c1ccc(N2CCCCCC2)c([N+](=O)[O-])c1` [4-(azepan-1-yl)-3-nitrobenzenesulfonamide], the EC50 was > 300 µM. With `CN1C(=Cc2ccc(F)cc2)C(=O)N=C1N` [(5Z)-2-azanyl-5-[(4-fluorophenyl)methylidene]-1-methyl-imidazol-4-one], the concentration for a half-maximal effect (EC50) is > 300 µM. Take `CCOc1ccc2c(c1)-c1c(ssc1=S)C(C)(C)N2C` [MLS000529181]: the EC50 is > 300 µM. The result for `CSc1nc(-c2cccs2)c(C#N)c(=O)[nH]1` [MLS000849828] reads > 300 µM; that for `Cc1ccc2c(c1)=C(NN1C(=O)c3ccccc3C1=O)C(=O)N=2` [MLS000573597], > 300 µM; that for `Nc1nonc1-n1nnc(C(=O)NN=Cc2ccccc2Br)c1CN1CCCC1` [SMR000620637], 1.57 µM. Turning to `O=C1N=C(Nc2ccc(O)cc2)SC1=Cc1ccco1` [SMR000298037], the 50% effective concentration (EC50) was > 300 µM. The same measure for `CCCN(CCC)Cc1c(C(=O)NN=Cc2cccs2)nnn1-c1nonc1N`: 60 µM; for `CCCn1nc(NC(=O)c2cccs2)c2cc3ccccc3nc21` [Thiophene-2-carboxylic acid (1-propyl-1H-pyrazolo[3,4-b]quinolin-3-yl)-amide]: > 300 µM; for `N=C(N)N/N=C1/C(=O)Nc2ccc(Br)cc21` [2-[(5-bromo-2-oxo-3-indolyl)amino]guanidine;hydrochloride]: 31.4 µM. `Cc1ccccc1-c1nnc(SCc2ccc(F)cc2)o1` [2-[(4-fluorophenyl)methylsulfanyl]-5-(2-methylphenyl)-1,3,4-oxadiazole]: the EC50 was > 300 µM. The same measure for `Nc1nc(NCc2ccco2)nc(Nc2cccc(F)c2)c1[N+](=O)[O-]` [SMR000436034]: > 300 µM; for `CC1CCN(c2nc3c(N)ncnc3n2[C@@H]2O[C@H](CO)[C@@H](O)[C@H]2O)CC1`: > 300 µM.

As for `COc1ccc(CNCC2COc3ccccc3O2)cc1` (configuration not stated) [SMR000588087], the concentration giving a half-maximal response (EC50) was > 300 µM.

As to `COc1ccc(OC)c(C(=O)c2coc3ccc(OC)cc23)c1` [MLS000108671], the half-maximal effective concentration (EC50) was > 300 µM. `O=C(O)CCN1C(=O)/C(=C\c2ccc(-c3nc4ccccc4s3)o2)SC1=S` [3-[(5E)-5-[[5-(1,3-benzothiazol-2-yl)-2-furanyl]methylidene]-4-oxo-2-sulfanylidene-3-thiazolidinyl]propanoic acid]: the concentration for a half-maximal effect (EC50) is > 300 µM. In turn, `OCCCNc1nccc(-c2cc(Nc3cccc(Cl)c3)ncn2)n1` [3-[[4-[6-[(3-chlorophenyl)amino]pyrimidin-4-yl]pyrimidin-2-yl]amino]propan-1-ol] gave an EC50 of 0.0779 µM. The result for `CCc1ccc(CNC(=O)C2CCC(=O)N(CCc3ccc(Cl)cc3)C2)nc1` (configuration not stated) [1-[2-(4-chlorophenyl)ethyl]-N-[(5-ethyl-2-pyridinyl)methyl]-6-oxo-3-piperidinecarboxamide] reads > 300 µM; that for `CCCCc1cc(=O)oc2cc(C)cc(O)c12`, > 300 µM. In the case of `Cc1nn(C)c(C)c1S(=O)(=O)N(CC(=O)Nc1nccs1)c1ccc(C(C)C)cc1` [MLS000118397], the EC50 is > 300 µM. The result for `COc1cccc(-c2c(C(=O)NN=C(C)c3ccncc3)nnn2-c2nonc2N)c1` [1-(4-amino-1,2,5-oxadiazol-3-yl)-5-(3-methoxyphenyl)-N-(1-pyridin-4-ylethylideneamino)-4-triazolecarboxamide] reads 19 µM; that for `Fc1ccc(-c2nnc(SCc3cccnc3)o2)cc1` [2-(4-fluorophenyl)-5-(pyridin-3-ylmethylsulfanyl)-1,3,4-oxadiazole], 75.5 µM. Consider `CCN1CCN(C(=O)c2ccc3c(c2)N(Cc2ccc(F)cc2)C(=O)c2ccccc2[S+]3[O-])CC1` (configuration not stated) [MLS000117749], for which the concentration for a half-maximal effect (EC50) is > 300 µM. The same measure for `O=C1N=c2cc(Cl)ccc2=C1NNc1ccc(C(=O)O)cc1` [MLS000759696]: 19.1 µM. The same measure for `Cc1ccc(OCC(=O)N/N=C/c2ccc(O)c([N+](=O)[O-])c2)c([N+](=O)[O-])c1` [SMR000312577]: > 300 µM; for `CC(CC(=O)N1CCN(c2cccc(Cl)c2)CC1)S(=O)(=O)c1ccc2c(c1)NC(=O)CO2` (configuration not stated) [6-[4-[4-(3-chlorophenyl)piperazin-1-yl]-4-oxobutan-2-yl]sulfonyl-4H-1,4-benzoxazin-3-one]: > 300 µM. The compound `Nc1nc(Nc2cccc(F)c2)nc(NCCO)c1[N+](=O)[O-]` [2-[[6-amino-2-(3-fluoroanilino)-5-nitro-4-pyrimidinyl]amino]ethanol] yielded a concentration for a half-maximal effect (EC50) of 114 µM. The same measure for `COc1ccc(C(C)N2CC34C=CC(O3)C(C(=O)O)C4C2=O)cc1` (configuration not stated) [3-[1-(4-Methoxy-phenyl)-ethyl]-4-oxo-10-oxa-3-aza-tricyclo[5.2.1.0*1,5*]dec-8-ene-6-carboxylic acid]: > 300 µM. The same measure for `O=C(COc1ccccc1[N+](=O)[O-])NN=Cc1ccncc1`: > 300 µM; for `CCOC(=O)c1nnn(-c2nonc2N)c1CN(CC)CC` [ethyl 1-(4-amino-1,2,5-oxadiazol-3-yl)-5-(diethylaminomethyl)triazole-4-carboxylate]: > 300 µM; for `O=C(CSc1ncnc2c1cnn2-c1ccc(F)cc1)NCC1CCCO1` (configuration not stated) [SMR000806858]: > 300 µM. The result for `COc1ccc(-c2nn(-c3ccccc3)cc2CN=Nc2ccccn2)cc1` [MLS000336205] reads > 300 µM; that for `CC(C(=O)Nc1cccnc1)n1cc([N+](=O)[O-])cn1` (configuration not stated) [MLS000729046], > 300 µM.
